According to PubChem BioAssay (NCI):
Several values for one entry are separate records, joined by “and”; a condition that tells them apart may be missing. Identical values can stand only once.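 How tested: cells in 96-well plates exposed to compound for 48 hours at five concentrations. GI50 is the concentration that inhibits growth by half. TGI is the concentration that stops growth completely.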

Experiments:
Experiment in all cases: NCI tumour cell line growth inhibition, 48 h
OVCAR-8 ovarian = tested on: OVCAR-8 ovarian
P388 leukemia = tested on: P388 leukemia
NCI/ADR-RES ovarian = tested on: NCI/ADR-RES ovarian
SF-539 CNS = tested on: SF-539 CNS
A498 renal = tested on: A498 renal
CCRF-CEM leukemia = tested on: CCRF-CEM leukemia
HOP-18 NSCLC = tested on: HOP-18 NSCLC
UACC-257 melanoma = tested on: UACC-257 melanoma
SF-295 CNS = tested on: SF-295 CNS
NCI-H522 lung = tested on: NCI-H522 lung
NCI-H460 lung = tested on: NCI-H460 lung
HCT-15 colon = tested on: HCT-15 colon
A549 NSCLC = tested on: A549 NSCLC
OVCAR-4 ovarian = tested on: OVCAR-4 ovarian
NCI-H226 lung = tested on: NCI-H226 lung
786-0 renal = tested on: 786-0 renal
MDA-MB-231 breast = tested on: MDA-MB-231 breast
U251 CNS = tested on: U251 CNS
COLO 205 colon = tested on: COLO 205 colon
SK-MEL-2 melanoma = tested on: SK-MEL-2 melanoma
CAKI-1 renal = tested on: CAKI-1 renal
UACC-62 melanoma = tested on: UACC-62 melanoma
DMS 114 small cell lung = tested on: DMS 114 small cell lung
MALME-3M melanoma = tested on: MALME-3M melanoma
SK-MEL-28 melanoma = tested on: SK-MEL-28 melanoma
SK-OV-3 ovarian = tested on: SK-OV-3 ovarian
SN12K1 renal = tested on: SN12K1 renal
IGROV1 ovarian = tested on: IGROV1 ovarian

SMILES: C[C@H]1C/C=C/[C@H]2[C@@H]3O[C@]3(C)[C@@H](C)[C@H]3[C@H](Cc4ccccc4)NC(=O)[C@]32OC(=O)O/C=C/[C@@](C)(O)C1=O
- GI50 (OVCAR-8 ovarian): 15 µM
- TGI (OVCAR-8 ovarian): 89.7 µM and 125 µM and > 250 µM
- TGI (P388 leukemia): 15.3 µM and 125 µM and 45.6 µM
- GI50 (NCI/ADR-RES ovarian): 34 µM and 33.3 µM
- TGI (NCI/ADR-RES ovarian): > 81.9 µM and 125 µM and 160 µM
- GI50 (SF-539 CNS): 0.0125 µM and 0.025 µM
- GI50 (A498 renal): 0.0126 µM
- TGI (A498 renal): 0.0665 µM and 0.527 µM
- GI50 (CCRF-CEM leukemia): 0.0125 µM and 0.025 µM
- TGI (CCRF-CEM leukemia): 67.7 µM and 84.6 µM and 71.5 µM
- GI50 (HOP-18 NSCLC): < 0.0116 µM
- TGI (HOP-18 NSCLC): 0.162 µM
- GI50 (UACC-257 melanoma): 0.127 µM and 0.0594 µM
- TGI (UACC-257 melanoma): 29.9 µM and 24.1 µM and 49.8 µM
- GI50 (SF-295 CNS): 0.0484 µM and 0.025 µM
- GI50 (NCI-H522 lung): 0.0125 µM and 0.025 µM
- TGI (NCI-H522 lung): 4.24 µM and 12.3 µM and 39.8 µM
- GI50 (NCI-H460 lung): 0.0125 µM and 0.025 µM
- TGI (NCI-H460 lung): 43.8 µM and 125 µM and 36.9 µM
- TGI (HCT-15 colon): 56.6 µM
- GI50 (A549 NSCLC): 0.0462 µM
- GI50 (OVCAR-4 ovarian): 0.396 µM
- TGI (OVCAR-4 ovarian): > 79.2 µM and 46.3 µM and > 250 µM
- GI50 (NCI-H226 lung): 0.025 µM
- TGI (786-0 renal): 63.5 µM
- TGI (MDA-MB-231 breast): 3.36 µM
- GI50 (U251 CNS): 0.025 µM
- TGI (U251 CNS): 1.14 µM and 4.02 µM and 0.424 µM
- GI50 (COLO 205 colon): 0.0194 µM and 0.0125 µM and 0.025 µM
- TGI (COLO 205 colon): 49.2 µM and 98.6 µM and 70.8 µM
- GI50 (SK-MEL-2 melanoma): 34.2 µM
- TGI (SK-MEL-2 melanoma): 38.6 µM and 125 µM
- TGI (CAKI-1 renal): 0.0428 µM
- GI50 (UACC-62 melanoma): 0.0652 µM and 0.025 µM
- GI50 (DMS 114 small cell lung): 0.0706 µM and 0.025 µM
- TGI (DMS 114 small cell lung): 9.99 µM and 20.2 µM and 33.3 µM
- GI50 (MALME-3M melanoma): 0.0212 µM
- TGI (MALME-3M melanoma): 2.91 µM and 3.5 µM and 0.877 µM
- GI50 (SK-MEL-28 melanoma): 0.0204 µM and 0.047 µM
- GI50 (SK-OV-3 ovarian): 0.025 µM
- GI50 (SN12K1 renal): 0.0125 µM
- GI50 (IGROV1 ovarian): 0.0703 µM and 0.0723 µM and 0.025 µM
- TGI (IGROV1 ovarian): > 33.5 µM and 125 µM and > 250 µM
